Laboratory results reported in patent US12043632B2, “6-heteroaryloxy benzimidazoles and azabenzimidazoles as JAK2 inhibitors” (Ajax Therapeutics, Inc., priority 2020, dated 2024).

The molecules below were run against T1, JAK2 (JH1domain-catalytic, Y1007F,Y1008F) kinase (Homo sapiens, UniProt O60674, Y1007F/Y1008F) (assay: JAK2 JH1 Domain Binding Assay). Conditions: qPCR readout.
T1 construct: JAK2 (JH1domain-catalytic, Y1007F,Y1008F) kinase was expressed as N-terminal fusion; made in house; host or cells: transiently transfected HEK293 cells
T1 sequence (O60674 849-1124 Y1007F/Y1008F limits assumed): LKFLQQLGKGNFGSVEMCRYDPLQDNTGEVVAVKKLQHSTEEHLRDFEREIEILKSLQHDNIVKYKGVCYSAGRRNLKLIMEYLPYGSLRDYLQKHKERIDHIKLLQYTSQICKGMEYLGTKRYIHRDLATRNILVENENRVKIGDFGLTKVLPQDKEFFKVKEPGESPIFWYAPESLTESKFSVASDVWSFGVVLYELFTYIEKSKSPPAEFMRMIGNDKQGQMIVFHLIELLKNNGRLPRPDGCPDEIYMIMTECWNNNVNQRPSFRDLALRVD

SMILES	Kd [nM]
COc1c(Oc2cnn3ccncc23)cnc2nc(Nc3cc(C4CC4)cn([C@H]4C[C@@H](O)C4)c3=O)n(C)c12 [Example I-74, cis-5-cyclopropyl-1-(3-hydroxycyclobutyl)-3-((7-methoxy-1-methyl-6-(pyrazolo[1,5-a]pyrazin-3-yloxy)-1H-imidazo[4,5-b]pyridin-2-yl)amino)pyridin-2(1H)-one]	< 10
Cn1c(Nc2cc(C3CC3)cn([C@H]3C[C@H](C#N)C3)c2=O)nc2ncc(Oc3cnn4ccncc34)c(Cl)c21 [Example I-77, trans-3-(3-((7-chloro-1-methyl-6-(pyrazolo[1,5-a]pyrazin-3-yloxy)-1H-imidazo[4,5-b]pyridin-2-yl)amino)-5-cyclopropyl-2-oxopyridin-1(2H)-yl)cyclobutane-1-carbonitrile]	< 10
Cn1c(Nc2cc(C3CC3)cn([C@H]3C[C@@H](C#N)C3)c2=O)nc2ncc(Oc3cnn4ccncc34)c(Cl)c21 [Example I-80, cis-3-(3-((7-chloro-1-methyl-6-(pyrazolo[1,5-a]pyrazin-3-yloxy)-1H-imidazo[4,5-b]pyridin-2-yl)amino)-5-cyclopropyl-2-oxopyridin-1(2H)-yl)cyclobutane-1-carbonitrile]	< 10
Cn1c(Nc2cc(C(C)(C)C)n([C@H]3CCO[C@@H]3CO)n2)nc2ncc(Oc3cnc4ccnn4c3)c(Cl)c21 [Example I-82, ((2S,3S)-3-(5-(tert-butyl)-3-((7-chloro-1-methyl-6-(pyrazolo[1,5-a]pyrimidin-6-yloxy)-1H-imidazo[4,5-b]pyridin-2-yl)amino)-1H-pyrazol-1-yl)tetrahydrofuran-2-yl)methanol]	10 to 50
Cn1cc(C2CC2)cc(Nc2nc3ncc(Oc4cnc5cnc(C6CC6)n5c4)c(Cl)c3n2C)c1=O [Example I-84, 3-((7-chloro-6-((6-cyclopropylimidazo[1,5-a]pyrimidin-3-yl)oxy)-1-methyl-1H-imidazo[4,5-b]pyridin-2-yl)amino)-5-cyclopropyl-1-methylpyridin-2(1H)-one]	< 10
Cn1c(Nc2cc(C3CC3)cn(C3CC4(COC4)C3)c2=O)nc2ncc(Oc3cnn4ccncc34)c(Cl)c21 [Example I-85, 3-((7-chloro-1-methyl-6-(pyrazolo[1,5-a]pyrazin-3-yloxy)-1H-imidazo[4,5-b]pyridin-2-yl)amino)-5-cyclopropyl-1-(2-oxaspiro[3.3]heptan-6-yl)pyridin-2(1H)-one]	< 10
Cn1c(Nc2cc(C(C)(C)C)n(C3COC3)n2)nc2ncc(Oc3cnn4ccncc34)c(Cl)c21 [Example I-86, N-(5-(tert-butyl)-1-(oxetan-3-yl)-1H-pyrazol-3-yl)-7-chloro-1-methyl-6-(pyrazolo[1,5-a]pyrazin-3-yloxy)-1H-imidazo[4,5-b]pyridin-2-amine]	< 10
Cn1c(Nc2cc(C(C)(C)C)n([C@H]3C[C@H](O)C3)n2)nc2ncc(Oc3cnc4cnc(C5CC5)n4c3)c(Cl)c21 [Example I-88, trans-3-(5-(tert-butyl)-3-((7-chloro-6-((6-cyclopropylimidazo[1,5-a]pyrimidin-3-yl)oxy)-1-methyl-1H-imidazo[4,5-b]pyridin-2-yl)amino)-1H-pyrazol-1-yl)cyclobutan-1-ol]	10 to 50
Cn1c(Nc2cc(C(F)(F)F)cn(C3CC4(COC4)C3)c2=O)nc2ncc(Oc3cnn4ccncc34)c(Cl)c21 [Example I-90, 3-((7-chloro-1-methyl-6-(pyrazolo[1,5-a]pyrazin-3-yloxy)-1H-imidazo[4,5-b]pyridin-2-yl)amino)-1-(2-oxaspiro[3.3]heptan-6-yl)-5-(trifluoromethyl)pyridin-2(1H)-one]	< 10
Cn1c(Nc2cc(C(F)(F)F)cn(CCCN3CCOCC3)c2=O)nc2ncc(Oc3cnn4ccncc34)c(Cl)c21 [Example I-91, 3-((7-chloro-1-methyl-6-(pyrazolo[1,5-a]pyrazin-3-yloxy)-1H-imidazo[4,5-b]pyridin-2-yl)amino)-1-(3-morpholinopropyl)-5-(trifluoromethyl)pyridin-2(1H)-one]	< 10
Cn1cc(C2CC2)cc(Nc2nc3ncc(Oc4cnc5[nH]ncc5c4)c(Cl)c3n2C)c1=O [Example I-92, 3-((6-((1H-pyrazolo[3,4-b]pyridin-5-yl)oxy)-7-chloro-1-methyl-1H-imidazo[4,5-b]pyridin-2-yl)amino)-5-cyclopropyl-1-methylpyridin-2(1H)-one]	< 10
CC(=O)N1CC(n2nc(Nc3nc4ncc(Oc5cnn6ccncc56)c(Cl)c4n3C)cc2C(C)(C)C)C1 [Example I-94, 1-(3-(5-(tert-butyl)-3-((7-chloro-1-methyl-6-(pyrazolo[1,5-a]pyrazin-3-yloxy)-1H-imidazo[4,5-b]pyridin-2-yl)amino)-1H-pyrazol-1-yl)azetidin-1-yl)ethan-1-one]	< 10
Cn1c(Nc2cc(C3CC3)cn(CCCN3CCOCC3)c2=O)nc2ncc(Oc3cnn4ccncc34)c(Cl)c21 [Example I-97, 3-((7-chloro-1-methyl-6-(pyrazolo[1,5-a]pyrazin-3-yloxy)-1H-imidazo[4,5-b]pyridin-2-yl)amino)-5-cyclopropyl-1-(3-morpholinopropyl)pyridin-2(1H)-one]	< 10
COc1c(Oc2cnn3ccccc23)cnc2nc(Nc3cc(C4CC4)cn(CCO)c3=O)n(C)c12 [Example I-100, 5-cyclopropyl-1-(2-hydroxyethyl)-3-((7-methoxy-1-methyl-6-(pyrazolo[1,5-a]pyridin-3-yloxy)-1H-imidazo[4,5-b]pyridin-2-yl)amino)pyridin-2(1H)-one]	10 to 50
CN1CCN(CCn2cc(C3CC3)cc(Nc3nc4ncc(Oc5cnn6ccccc56)c(Cl)c4n3C)c2=O)CC1 [Example I-102, 3-((7-chloro-1-methyl-6-(pyrazolo[1,5-a]pyridin-3-yloxy)-1H-imidazo[4,5-b]pyridin-2-yl)amino)-5-cyclopropyl-1-(2-(4-methylpiperazin-1-yl)ethyl)pyridin-2(1H)-one]	< 10
Cn1c(Nc2cc(C(F)(F)F)cn(CCO)c2=O)nc2ncc(Oc3cnn4ccccc34)c(Cl)c21 [Example I-103, 3-((7-chloro-1-methyl-6-(pyrazolo[1,5-a]pyridin-3-yloxy)-1H-imidazo[4,5-b]pyridin-2-yl)amino)-1-(2-hydroxyethyl)-5-(trifluoromethyl)pyridin-2(1H)-one]	< 10
Cn1c(Nc2cc(C(F)(F)F)cn(-c3cccnc3)c2=O)nc2ncc(Oc3cnn4ccncc34)c(Cl)c21 [Example I-109, 3-((7-chloro-1-methyl-6-(pyrazolo[1,5-a]pyrazin-3-yloxy)-1H-imidazo[4,5-b]pyridin-2-yl)amino)-5-(trifluoromethyl)-2H-[1,3′-bipyridin]-2-one]	< 10

Second part, the molecule after the results:

Kd [nM]	SMILES
< 10	Cn1c(Nc2cc(C3CC3)cn([C@H]3C[C@@H](O)C3)c2=O)nc2ncc(Oc3cnn4ccncc34)c(Cl)c21 [Example I-70, 3-((7-chloro-1-methyl-6-(pyrazolo[1,5-a]pyrazin-3-yloxy)-1H-imidazo[4,5-b]pyridin-2-yl)amino)-5-cyclopropyl-1-((1s,3s)-3-hydroxycyclobutyl)pyridin-2(1H)-one]
< 10	COc1c(Oc2cnn3ccncc23)cnc2nc(Nc3cc(C4CC4)cn([C@H]4C[C@H](O)C4)c3=O)n(C)c12 [Example I-75, trans-5-cyclopropyl-1-(3-hydroxycyclobutyl)-3-((7-methoxy-1-methyl-6-(pyrazolo[1,5-a]pyrazin-3-yloxy)-1H-imidazo[4,5-b]pyridin-2-yl)amino)pyridin-2(1H)-one]
< 10	Cn1c(Nc2cc(C3CC3)cn(CCO)c2=O)nc2ncc(Oc3cnn4ccccc34)c(Cl)c21 [Example I-78, 3-((7-chloro-1-methyl-6-(pyrazolo[1,5-a]pyridin-3-yloxy)-1H-imidazo[4,5-b]pyridin-2-yl)amino)-5-cyclopropyl-1-(2-hydroxyethyl)pyridin-2(1H)-one]
< 10	Cn1c(Nc2cc(C3CC3)cn([C@H]3C[C@H](O)C3)c2=O)nc2ncc(Oc3cnn4ccccc34)c(Cl)c21 [Example I-79, trans-3-((7-chloro-1-methyl-6-(pyrazolo[1,5-a]pyridin-3-yloxy)-1H-imidazo[4,5-b]pyridin-2-yl)amino)-5-cyclopropyl-1-(3-hydroxycyclobutyl)pyridin-2(1H)-one]
10 to 50	Cn1c(Nc2cc(C(C)(C)C)n([C@H]3CCO[C@@H]3CO)n2)nc2ncc(Oc3cnn4ccnc4c3)c(Cl)c21 [Example I-83, ((2S,3S)-3-(5-(tert-butyl)-3-((7-chloro-6-(imidazo[1,2-b]pyridazin-7-yloxy)-1-methyl-1H-imidazo[4,5-b]pyridin-2-yl)amino)-1H-pyrazol-1-yl)tetrahydrofuran-2-yl)methanol]
10 to 50	Cn1c(Nc2cc(C(C)(C)C)n([C@H]3CCO[C@@H]3CO)n2)nc2ncc(Oc3cnc4cnc(C5CC5)n4c3)c(Cl)c21 [Example I-87, ((2S,3S)-3-(5-(tert-butyl)-3-((7-chloro-6-((6-cyclopropylimidazo[1,5-a]pyrimidin-3-yl)oxy)-1-methyl-1H-imidazo[4,5-b]pyridin-2-yl)amino)-1H-pyrazol-1-yl)tetrahydrofuran-2-yl)methanol]
10 to 50	COc1c(Oc2cnn3ccncc23)cnc2nc(Nc3cc(C4CC4)cn([C@H]4C[C@H](C#N)C4)c3=O)n(C)c12 [Example I-96, trans-3-(5-cyclopropyl-3-((7-methoxy-1-methyl-6-(pyrazolo[1,5-a]pyrazin-3-yloxy)-1H-imidazo[4,5-b]pyridin-2-yl)amino)-2-oxopyridin-1(2H)-yl)cyclobutane-1-carbonitrile]
10 to 50	COc1c(Oc2cnn3ccncc23)cnc2nc(Nc3cc(C4CC4)cn(CC(C)(C)OC)c3=O)n(C)c12 [Example I-106, 5-cyclopropyl-3-((7-methoxy-1-methyl-6-(pyrazolo[1,5-a]pyrazin-3-yloxy)-1H-imidazo[4,5-b]pyridin-2-yl)amino)-1-(2-methoxy-2-methylpropyl)pyridin-2(1H)-one]
< 10	Cn1c(Nc2cc(C3CC3)cn(-c3cccnc3)c2=O)nc2ncc(Oc3cnn4ccncc34)c(Cl)c21 [Example I-108, 3-((7-chloro-1-methyl-6-(pyrazolo[1,5-a]pyrazin-3-yloxy)-1H-imidazo[4,5-b]pyridin-2-yl)amino)-5-cyclopropyl-2H-[1,3′-bipyridin]-2-one]
